Test results taken from patent US12612599B2, “Compositions and methods for microglia replacement therapy” (Savanna Biotherapeutics, Inc., priority 2018, dated 2026).

The substances below were run on bone marrow derived macrophages (BMDMs) expressing human CSF1R variants (assay: In vitro survival assay of retrovirally transduced bone marrow derived macrophages expressing CSF1R variants under PLX3397). Conditions: PLX3397 100 nM, 48 hours, CellTiter-Glo 2; compared to cells expressing WT CSF1R; FIG. 23.
Format: cell-based, mouse

Substance | ratio between number of cells following treatment with CSF1R inhibitor (PLX-3397) + CSF1 and number of cells following complete deprivation of CSF1
D796A: human CSF1R variant, SEQ ID NO: 12 | higher ratio than cells expressing WT CSF1R
G795A: human CSF1R variant, SEQ ID NO: 10 | higher ratio than cells expressing WT CSF1R
M637L: human CSF1R variant, SEQ ID NO: 11 | higher ratio than cells expressing WT CSF1R
Y546F: human CSF1R variant, SEQ ID NO: 14 | higher ratio than cells expressing WT CSF1R
